One block for each molecule: values may come before it. No end group written: not given here.
Tests used:
LU1205 cells = assay: Apoptosis by FACS (hypodiploid fraction); type: cell-based, human; set-up: Adriamycin induced programmed cell death, increase compared with control: dose or concentration left out as unconfirmed
Experimental: (§1) Treatment and apoptosis studies of stably transfected melanoma cells. Cells were exposed to UVC at 75 J/m^2 as previously described (Ronai, Z., et al., Oncogene 1998; 16:523-531). SB203580 (1-10 μM) (Calbiochem®, San Diego, Calif.), NCS (50-100 ng/ml) and mitomycin C (MMC) (0.2-1 μM) were used to treat melanoma cells. Flow cytometric analysis was performed on a FACSCalibur™ flow cytometer (Becton Dickinson) using CellQuest™ software as described previously (Nicoletti et al., J. Immunol. Methods 1991; 139:271-279). Cells were pelleted and resuspended in 0.5 ml of hypotonic buffer with 0.1% Triton X-100 containing PI (40 μg/ml) and DNase-free RNase A (1 mg/ml). Cells were incubated at 37° C. for 30 min and analyzed on a FACSCalibur™ flow cytometer (Becton Dickinson). The percentage of cells to the left of the diploid G0/1 peak, characteristic of hypodiploid cells that have lost DNA, was defined as the percentage of apoptotic cells. Analysis was performed with light scatter gating. Surface expression of Fas was determined using anti-Fas-PE antibody (PharMingen® CA) and flow cytometric analysis. Cell surface expression is measured as mean fluorescence intensity (MFI).

LU1205 tumor cells = assay: Growth of transplanted LU1205 tumors in mice; type: in vivo; conditions: single agent: inhibitor injected into tumor, or peptide expressed in tumor cells
Experimental: (§2) Tumor growth and metastasis evaluation in vivo. Cell lines established in culture to constitutively or inducibly express the peptide were injected into mice subcutaneously (S.C.). LU1205, FEMX and SW-1 cells that expressed control or peptide II were trypsinized, resuspended in PBS and injected SC (1×10^6) into 6-7 week old mice in the lower flank. When the tumor reached the size of about 50 mm^3, 5 μM of SB203580 was injected into four areas of the LU1205 tumors every 4 days during a 2-week period. For FEMX tumors UCN-01 (2.5 mg/kg) was fed by gavage twice a day, three times per week for a total of 2 weeks. Tumor growth was monitored every two days. SW-1 cells expressing peptide II under tet-inducible vector were injected SC (1×10^6). When tumors reached a size of about 50 mm^3, the mice received doxycycline in their drinking water ([…]) for a total of 2-4 weeks. At the end of the experiment, the tumors were excised and weighed. The lungs and other organs were subjected to histopathological examination to detect metastatic lesions.

[1] = test system: human melanocytes (FOM71); assay: Apoptosis by FACS (hypodiploid fraction); type: cell-based; conditions: melanocytes; SB203580 or NCS (100 ng/ml); 36 h
Experimental: as §1

FEMX tumor cells = assay: Growth of transplanted FEMX tumors in mice; type: in vivo; conditions: single agent: UCN-01 by gavage, or peptide expressed in tumor cells
Experimental: as §2

FEMX melanoma cell line = assay: Colony forming efficiency (CFE) resistance assay; type: cell-based, human; conditions: peptide-expressing FEMX vs neo control; UV-treatment; 14 days
Experimental: (§3) Radiation resistance. Cells (500 or 1500 per well) were plated in triplicates on 6 well plates, 24 h before treatment (Ronai et al., Oncogene 1998; 16:523-531). In all cases, plating efficiency was pre-determined so that number of cell plated was normalized respectively. Colonies (greater than 50 cells per clone) were stained with crystal violet solution (3% in 10% methanol and PBS), 14 days After treatment. % of CFE in each treatment group was calculated based on total CFE formed in the respective controls (100%).

[2] = test system: LU1205 melanoma cell line; assay: Colony forming efficiency (CFE) resistance assay; type: cell-based, human
Experimental: as §3

Fas = assay: Cell surface expression of Fas by FACS; type: cell-based, human; conditions: peptide-expressing LU1205; control 122
Experimental: as §1

[3] = test system: ATF2 transcriptional output; assay: Jun-2-Luc activities in peptide IV-expressing cells; type: cell-based
Fas promoter = Fas promoter activity (-460 Fas promoter region); type: cell-based, human; conditions: peptide-expressing LU1205
ATF2 [4] = assay: ATF2 phosphorylation in peptide-expressing melanoma cells; type: cell-based, human; conditions: UV-treated; vs control vector cells
[5] = test system: Adriamycin-resistant MCF7 cell line (MCF7-Adr); assay: Apoptosis by FACS (hypodiploid fraction); type: cell-based, human; conditions: peptide-expressing MCF7-Adr; neo controls 3-fold; 36 h
Experimental: [Worded in the source for another cell line; this cell line is reported under the same test.] as §1

[6] = test system: MCF7 breast cancer-derived cell line; assay: Apoptosis by FACS (hypodiploid fraction); type: cell-based, human; conditions: peptide-expressing MCF7; UV; 36 h
Experimental: [Worded in the source for another cell line; this cell line is reported under the same test.] as §1

FEMX cells = assay: Apoptosis by FACS (hypodiploid fraction); type: cell-based, human; conditions: peptide-expressing FEMX; UV-C 75 J/m2; 36 h; neo control 13%
Experimental: as §1

[7] = test system: WM1552 early-phase melanoma cell line; assay: Apoptosis by FACS (hypodiploid fraction); type: cell-based, human; conditions: peptide-expressing WM1552; UV-C 75 J/m2; 36 h
Experimental: as §1

[8] = test system: 293T human kidney embryonic cells; assay: Apoptosis by FACS (hypodiploid fraction); type: cell-based; conditions: peptide-expressing 293T; normal growth conditions
Experimental: [Worded in the source for another cell line; this cell line is reported under the same test.] as §1

JNK = assay: GST binding assay; conditions: GST pull-down; greater binding in extracts of UV-treated cells
Experimental: (§4) Electrophoretic mobility shift assays were performed as described. (Ivanov and Ronada, J Biol Chem 1999; 274(20):14079-89). GST binding assays were performed with GST-peptide II as described (Adler et al., Proc Natl Acad Sci USA 1995; 92 10585-9). SW1 cells expressing control vector or peptide II were subjected to FACS analysis following their incubation with antibodies to the cell surface receptor of FAS as described above.

ATF2 [9] = assay: GST binding assay; conditions: GST pull-down
Experimental: as §4

Molecule: COc1cccc2c1C(=O)c1c(O)c3c(c(O)c1C2=O)C[C@@](O)(C(=O)CO)C[C@@H]3O[C@H]1C[C@H](N)[C@H](O)[C@H](C)O1 [Adriamycin®, reference compound]
Adriamycin induced programmed cell death, increase compared with control (LU1205 cells; LU1205, ADR alone): 2 fold

Molecule: C[S+]([O-])c1ccc(-c2nc(-c3ccncc3)c(-c3ccc(F)cc3)[nH]2)cc1 (centres unmarked) [SB203580, reference compound]
tumor cell growth (LU1205 tumor cells): almost no effect
changes in degree of apoptosis [1]: neither NCS nor SB203580 elicited any significant changes

Molecule: CN[C@@H]1C[C@H]2O[C@@](C)([C@@H]1OC)n1c3ccccc3c3c4c(c5c6ccccc6n2c5c31)C(=O)N[C@H]4O [UCN-01, 7-hydroxystaurosporine, reference compound]
tumor cell growth (FEMX tumor cells): little effect, if any

Molecule: neocarzinostatin [NCS]
changes in degree of apoptosis [1]: neither NCS nor SB203580 elicited any significant changes

Molecule: peptide IV: ATF2 peptide of amino acid residues 150-200, expressed from pcDNA3 with HA-penetratin tag (EVPLAQTAQPTSAIVRPASLQVPNVLLTSSDSSVIIQQAVPSPTSSTVITQ; not fully specified; also: HA-penetratin tag, position not given here; UniProt P15336 150-200, looked up, fragment)
increase in the % of CFE (FEMX melanoma cell line): ≤ 2.5 fold
increase in the resistance to NCS (CFE) ([2]; peptide-expressing LU1205, low dose of NCS): ~2 fold
increase in the % of CFE ([2]; peptide-expressing LU1205 vs neo control, UV-treatment, 14 days): ≤ 2.5 fold
cell surface expression of Fas, mean fluorescence intensity (Fas): did not cause major changes
transcriptional output measured via Jun-2-Luc activities [3]: elevated transcriptional output
increase in degree of apoptosis over control neo cells given Adriamycin and verapamil (LU1205 cells; peptide-expressing LU1205, Adriamycin + verapamil): 70%
apoptotic fraction of UV-treated cells (LU1205 cells; peptide-expressing LU1205, UV-C 75 J/m2, 36 h, neo control 15%): 10%
increase in the degree of cell death (LU1205 cells; peptide-expressing LU1205, higher doses (10 μM) of SB203580, 36 h): 2 fold
increase in cell death (LU1205 cells; peptide-expressing LU1205, low doses of SB203580, 36 h): did not alter the degree of cell death
Fas promoter mediated transcription (Fas promoter): decrease in Fas promoter mediated transcription
ATF2 phosphorylation after UV-treatment (ATF2 [4]): higher degree of increase in ATF2 phosphorylation
increase in apoptosis following UV-treatment [5]: greater than 4 fold
decrease in the degree of apoptosis after UV-treatment compared with MCF7 neo control cells [6]: 5 fold
apoptotic fraction of UV-treated cells (FEMX cells): 8%
sensitization to UV-induced apoptosis [7]: did not cause higher level of apoptosis
increase in the degree of basal apoptosis [8]: 15 fold

association with JNK (JNK): equivalent association
association with ATF2 (ATF2 [9]): weaker association
B1: amino acid residues 1-115: larger region of the amino-terminal ATF2 domain (amino acid residues 1-115) (protein, UniProt P15336 1-115, looked up, fragment)
chain: MKFKLHVNSARQYKDLWNMSDDKPFLCTAPGCGQRFTNEDHLAVHKHKHEMTLKFGPARNDSVIVADQTPTPTRFLKNCEEVGLFNELASPFENEFKKASEDDIKKMPLDLSPLA

From US7935525B2, “Inhibition of ATF2 activity to treat cancer” (Mount Sinai School of Medicine, priority 2001, dated 2011)
